According to patent publication US20230218710A1, “METHOD OF TREATING CORONAVIRUS INFECTIONS” (priority 2020, published 2023):
Where a name gives a salt, the structure may show the parent alone. Marks after values point to notes of the source that are not given here.

Tests used:
[1] = system: LPS-induced tissue damage in the liver; conditions: rats; Zhou et al. 2018; cited from earlier work
[2] = system: LPS-induced acute lung injury mouse model; assay: LPS-induced acute lung injury model in mouse (Example 6); format: in vivo, mice; conditions: 10 nmol/kg i.p.; for Mean (SEM) Lung Weight: normalized to body weight
Procedure: The effect of the peptides of the current invention on acute lung injury can be assessed in an LPS-induced acute lung injury mouse model by monitoring outcomes such as lung weight, fluid accumulation, cytokine secretion in blood or bronchoalveolar lavage fluid (BALF), neutrophil infiltration into lung tissues, and assessment of acute lung injury score by histopathology. Acute lung injury was induced in male C57BL/6 mice (6 to 8 weeks old) by intratracheal administration of 40 μL lipopolysaccharide (LPS) (Sigma Aldrich, St. Louis, Mo.) in PBS at 5 mg/kg. Control animals received intratracheal PBS alone. […] Treatments were administered 1 h prior to LPS for animals designated for sacrifice at 4 h after LPS, or at both 1 h prior to and 6 h after LPS for animals designated for sacrifice at 24 h after LPS. At 4 or 24 hours post LPS administration, tissues were harvested. Lungs were weighed, flushed with Hanks Buffer to provide bronchoalveolar lavage fluid (BALF). Lungs were fixed in 10% neutral buffered formalin (NBF) for histopathology. Tissue slides were stained with hematoxylin and eosin (H&E) and evaluated and scored with light microscopy of 5 representative microscopic fields (100× magnification) scoring on a 0-5 scale using standard methods (Matute-Bello G et al 2011. An Official American Thoracic Society Workshop Report: Features and Measurements of Experimental Acute Lung Injury in Animals. Am J Respir Cell Mol Biol 44:725-38). The average score for five fields was calculated for each animal. Levels of pro-inflammatory cytokines in BALF were determined using a meso scale discovery (MSD) system. Data for test peptides were compared to the vehicle control group. Lung weights were normalized to body weight.

[3] = system: LPS-induced acute lung tissue damage; conditions: animals; Petrescu et al. 2010; cited from earlier work
[4] = molecular target: T1, Apelin Receptor (APJ) (Homo sapiens, UniProt P35414); assay: Activation of Ras in cultured cells overexpressing APJ; format: cell-based; conditions: 50 μM peptide, 1 min; 100 nM Pyr-Apelin-13 = positive control
T1 construct: host or cells: CHO-K1 AGTRL1 Gi cells
T1 sequence (P35414 1-380): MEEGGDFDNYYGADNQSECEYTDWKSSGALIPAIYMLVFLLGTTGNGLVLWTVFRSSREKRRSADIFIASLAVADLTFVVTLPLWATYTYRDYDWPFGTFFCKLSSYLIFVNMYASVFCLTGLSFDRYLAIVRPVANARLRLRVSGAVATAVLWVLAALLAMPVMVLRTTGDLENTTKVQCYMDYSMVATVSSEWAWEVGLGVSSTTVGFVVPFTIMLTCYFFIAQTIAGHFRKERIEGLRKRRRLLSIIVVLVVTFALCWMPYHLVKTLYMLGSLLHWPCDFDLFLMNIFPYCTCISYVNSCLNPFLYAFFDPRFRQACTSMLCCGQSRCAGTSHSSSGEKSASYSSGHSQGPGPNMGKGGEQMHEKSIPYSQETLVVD
Procedure: Peptides were initially prepared as 100× stocks in H2O. […] Following a 1 min incubation, the cells were placed on ice, the supernatant was removed, and washed twice with cold HBSS. The HBSS was removed and the cells were immediately lysed in 150 μl/well of lysis buffer included with Active Ras Detection kit (Cell Signaling Technology; Danvers, Mass.); lysis buffer was supplemented with 1 mM PMSF (Millipore-Sigma; Saint Louis, Mo.) and Halt Protease/Phosphatase Inhibitor Cocktail (Thermo-Fisher; Waltham, Mass.) prior to use. The wells were immediately scraped and lysates transferred to microfuge tubes. The samples were then placed on ice for 10 min. […] Visualization and quantification of Ras recovery (GTP-bound/active Ras) in samples were performed with Azure Biosystems C400 Imager and AzureSpot analysis software (Dublin, Calif.). […] Each data point represents the average of duplicate assays.

[5] = histopathology, 0-5 scale, 24 h after LPS

Structure (SMILES)	Tissue damage in the liver induced by LPS (in words) [1]	Pro-inflammatory Cytokine Level IFNγ ([2]; BALF, 4 h after LPS)	Pro-inflammatory Cytokine Level IL-1β ([2]; BALF, 4 h after LPS)	Pro-inflammatory Cytokine Level IL-6 ([2]; BALF, 4 h after LPS)	Pro-inflammatory Cytokine Level IL-17-A ([2]; BALF, 4 h after LPS)	Pro-inflammatory Cytokine Level IL-17-C ([2]; BALF, 4 h after LPS)	Pro-inflammatory Cytokine Level IL-23 ([2]; BALF, 4 h after LPS)	Pro-inflammatory Cytokine Level KC/GRO ([2]; BALF, 4 h after LPS)	Pro-inflammatory Cytokine Level TNFα ([2]; BALF, 4 h after LPS)	Mean (SEM) Alveolar Neutrophil Infiltration Score [2, 5]	Mean (SEM) Interstitial Neutrophil Infiltration Score [2, 5]	Mean (SEM) Composite Lung Injury Score ([2]; histopathology, 24 h after LPS)	Mean (SEM) Lung Weight ([2]; 4 h after LPS)	Mean (SEM) Lung Weight ([2]; 24 h after LPS)	Pulmonary vascular leakage resulting from LPS-induced acute lung tissue damage (in words) [3]	GTP-Ras (% of Positive Control) [4]
CSCC[C@H](NC(=O)[C@@H]1CCCN1C(=O)CNC(=O)[C@H](CCCCN)NC(=O)[C@H](Cc1c[nH]cn1)NC(=O)[C@H](CO)NC(=O)[C@H](CC(C)C)NC(=O)[C@H](CCCNC(=N)N)NC(=O)[C@@H]1CCCN1C(=O)[C@H](CCCNC(=N)N)NC(=O)[C@@H](N)CCC(N)=O)C(=O)N1CCC[C@H]1C(=O)N[C@@H](Cc1ccccc1)C(=O)O [Apelin-13]	attenuated tissue damage in the liver	0.04 pg/mL	123 pg/mL	4540 pg/mL	0.87 pg/mL	1.84 pg/mL	0.68 pg/mL	3210 pg/mL	15500 pg/mL	1.40 (0.21)	1.13 (0.11)	2.58 (0.29)	1.03 (0.03)** g	1.32 (0.03)* g	reduce pulmonary vascular leakage	–
CSCC[C@H](NC(=O)CNC(=O)[C@H](CCSC)NC(=O)[C@H](CCSC)NC(=O)[C@H](CCCNC(=N)N)NC(=O)[C@@H](N)CCCNC(=N)N)C(=O)N[C@H](C(=O)N[C@@H](Cc1ccccc1)C(=O)N[C@@H](CCC(N)=O)C(=O)N[C@@H](CO)C(=O)N[C@@H](CC(C)C)C(=O)N[C@@H](CS)C(=O)NCC(=O)N[C@H](C)C(=O)O)C(C)C [SEQ ID NO: 15 HCl salt]	–	–	–	–	–	–	–	–	–	–	–	–	–	–	–	90.8%
